Assay results taken from ChEMBL document CHEMBL4507258 (2021).

Legend:
Details in all cases: Compound concentration 1000.0 nM
[1] = molecular target: RAC-alpha serine/threonine-protein kinase (Homo sapiens) (UniProt P31749)
[2] = system: ALK tyrosine kinase receptor (Homo sapiens), Q9UM73 [C1156Y]
[3] = molecular target: Serine/threonine-protein kinase BRSK2 (Homo sapiens) (UniProt Q8IWQ3)
[4] = molecular target: Mitotic checkpoint serine/threonine-protein kinase BUB1 (Homo sapiens) (UniProt O43683)
[5] = molecular target: Calcium/calmodulin-dependent protein kinase type II subunit beta (Homo sapiens) (UniProt Q13554)
[6] = molecular target: Macrophage colony-stimulating factor 1 receptor (Homo sapiens) (UniProt P07333)
[7] = molecular target: Casein kinase I isoform alpha (Homo sapiens) (UniProt P48729)
[8] = molecular target: Death-associated protein kinase 1 (Homo sapiens) (UniProt P53355)
[9] = system: Epidermal growth factor receptor (Homo sapiens), P00533 [UNDEFINED MUTATION]
[10] = molecular target: Receptor tyrosine-protein kinase erbB-3 (Homo sapiens) (UniProt P21860)
[11] = molecular target: Receptor tyrosine-protein kinase erbB-4 (Homo sapiens) (UniProt Q15303)
[12] = molecular target: Glycogen synthase kinase-3 beta (Homo sapiens) (UniProt P49841)
[13] = molecular target: Tyrosine-protein kinase JAK1 (Homo sapiens) (UniProt P23458)
[14] = molecular target: Mitogen-activated protein kinase 8 (Homo sapiens) (UniProt P45983)
[15] = system: Mast/stem cell growth factor receptor Kit (Homo sapiens), P10721 [A829P]
[16] = system: Mast/stem cell growth factor receptor Kit (Homo sapiens), P10721 [V559D]
[17] = molecular target: Mitogen-activated protein kinase kinase kinase 15 (Homo sapiens) (UniProt Q6ZN16)
[18] = molecular target: Mitogen-activated protein kinase kinase kinase kinase 2 (Homo sapiens) (UniProt Q12851)
[19] = molecular target: Mitogen-activated protein kinase kinase kinase kinase 4 (Homo sapiens) (UniProt O95819)
[20] = molecular target: Serine/threonine-protein kinase MARK1 (Homo sapiens) (UniProt Q9P0L2)
[21] = molecular target: Dual specificity mitogen-activated protein kinase kinase 3 (Homo sapiens) (UniProt P46734)
[22] = molecular target: Dual specificity mitogen-activated protein kinase kinase 4 (Homo sapiens) (UniProt P45985)
[23] = system: Hepatocyte growth factor receptor (Homo sapiens), P08581 [M1250T]
[24] = molecular target: Misshapen-like kinase 1 (Homo sapiens) (UniProt Q8N4C8)
[25] = molecular target: Myosin light chain kinase (Homo sapiens) (UniProt Q32MK0)
[26] = molecular target: Muscle, skeletal receptor tyrosine-protein kinase (Homo sapiens) (UniProt O15146)
[27] = molecular target: Serine/threonine-protein kinase Nek1 (Homo sapiens) (UniProt Q96PY6)
[28] = molecular target: Serine/threonine-protein kinase Nek3 (Homo sapiens) (UniProt P51956)
[29] = molecular target: Serine/threonine-protein kinase Nek4 (Homo sapiens) (UniProt P51957)
[30] = molecular target: Serine/threonine-protein kinase NLK (Homo sapiens) (UniProt Q9UBE8)
[31] = molecular target: Mitogen-activated protein kinase 11 (Homo sapiens) (UniProt Q15759)
[32] = molecular target: Cyclin-dependent kinase 18 (Homo sapiens) (UniProt Q07002)
[33] = molecular target: Phosphatidylinositol 4-phosphate 3-kinase C2 domain-containing subunit beta (Homo sapiens) (UniProt O00750)
[34] = molecular target: Phosphatidylinositol 4-phosphate 5-kinase type-1 alpha (Homo sapiens) (UniProt Q99755)
[35] = molecular target: cAMP-dependent protein kinase catalytic subunit alpha (Homo sapiens) (UniProt P17612)
[36] = molecular target: Protein kinase C epsilon type (Homo sapiens) (UniProt Q02156)
[37] = molecular target: Protein kinase C iota type (Homo sapiens) (UniProt P41743)
[38] = molecular target: Receptor-interacting serine/threonine-protein kinase 2 (Homo sapiens) (UniProt O43353)
[39] = molecular target: Serine/threonine-protein kinase Sgk1 (Homo sapiens) (UniProt O00141)
[40] = molecular target: Tyrosine-protein kinase Srms (Homo sapiens) (UniProt Q9H3Y6)
[41] = molecular target: Serine/threonine-protein kinase 16 (Homo sapiens) (UniProt O75716)
[42] = molecular target: Mitogen-activated protein kinase kinase kinase 7 (Homo sapiens) (UniProt O43318)
[43] = molecular target: Non-receptor tyrosine-protein kinase TNK1 (Homo sapiens) (UniProt Q13470)
[44] = molecular target: Serine/threonine-protein kinase ULK3 (Homo sapiens) (UniProt Q6PHR2)
[45] = molecular target: Serine/threonine-protein kinase WNK1 (Homo sapiens) (UniProt Q9H4A3)

Measured: residual activity

Mast/stem cell growth factor receptor Kit (Homo sapiens), P10721 [A829P], sequence (P10721 whole entry A829P): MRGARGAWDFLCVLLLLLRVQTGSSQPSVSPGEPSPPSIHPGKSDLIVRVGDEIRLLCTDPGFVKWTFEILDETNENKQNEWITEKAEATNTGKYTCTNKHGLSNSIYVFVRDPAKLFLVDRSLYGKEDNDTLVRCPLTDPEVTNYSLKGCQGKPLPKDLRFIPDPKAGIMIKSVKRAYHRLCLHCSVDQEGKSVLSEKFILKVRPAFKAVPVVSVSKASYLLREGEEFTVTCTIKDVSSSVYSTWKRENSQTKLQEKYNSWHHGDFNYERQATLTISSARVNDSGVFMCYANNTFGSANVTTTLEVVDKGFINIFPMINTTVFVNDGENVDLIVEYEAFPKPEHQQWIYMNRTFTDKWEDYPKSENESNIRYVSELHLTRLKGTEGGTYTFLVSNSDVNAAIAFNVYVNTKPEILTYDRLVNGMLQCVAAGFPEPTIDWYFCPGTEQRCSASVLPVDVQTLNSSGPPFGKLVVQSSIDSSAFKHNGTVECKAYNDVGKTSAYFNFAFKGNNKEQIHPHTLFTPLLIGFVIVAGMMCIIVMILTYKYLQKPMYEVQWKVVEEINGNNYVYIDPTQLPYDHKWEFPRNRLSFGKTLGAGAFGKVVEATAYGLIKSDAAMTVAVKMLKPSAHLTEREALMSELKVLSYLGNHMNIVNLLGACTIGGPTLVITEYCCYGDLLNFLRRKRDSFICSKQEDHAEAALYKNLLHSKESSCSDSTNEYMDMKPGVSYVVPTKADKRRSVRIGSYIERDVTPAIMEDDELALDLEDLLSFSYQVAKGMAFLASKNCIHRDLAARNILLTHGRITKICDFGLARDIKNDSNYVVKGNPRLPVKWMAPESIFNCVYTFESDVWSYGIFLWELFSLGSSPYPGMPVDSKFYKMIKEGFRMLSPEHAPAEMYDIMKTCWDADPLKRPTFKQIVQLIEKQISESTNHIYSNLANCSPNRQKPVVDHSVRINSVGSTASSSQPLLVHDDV
Phosphatidylinositol 4-phosphate 3-kinase C2 domain-containing subunit beta (Homo sapiens), sequence (O00750 whole entry, the tested form may be a part): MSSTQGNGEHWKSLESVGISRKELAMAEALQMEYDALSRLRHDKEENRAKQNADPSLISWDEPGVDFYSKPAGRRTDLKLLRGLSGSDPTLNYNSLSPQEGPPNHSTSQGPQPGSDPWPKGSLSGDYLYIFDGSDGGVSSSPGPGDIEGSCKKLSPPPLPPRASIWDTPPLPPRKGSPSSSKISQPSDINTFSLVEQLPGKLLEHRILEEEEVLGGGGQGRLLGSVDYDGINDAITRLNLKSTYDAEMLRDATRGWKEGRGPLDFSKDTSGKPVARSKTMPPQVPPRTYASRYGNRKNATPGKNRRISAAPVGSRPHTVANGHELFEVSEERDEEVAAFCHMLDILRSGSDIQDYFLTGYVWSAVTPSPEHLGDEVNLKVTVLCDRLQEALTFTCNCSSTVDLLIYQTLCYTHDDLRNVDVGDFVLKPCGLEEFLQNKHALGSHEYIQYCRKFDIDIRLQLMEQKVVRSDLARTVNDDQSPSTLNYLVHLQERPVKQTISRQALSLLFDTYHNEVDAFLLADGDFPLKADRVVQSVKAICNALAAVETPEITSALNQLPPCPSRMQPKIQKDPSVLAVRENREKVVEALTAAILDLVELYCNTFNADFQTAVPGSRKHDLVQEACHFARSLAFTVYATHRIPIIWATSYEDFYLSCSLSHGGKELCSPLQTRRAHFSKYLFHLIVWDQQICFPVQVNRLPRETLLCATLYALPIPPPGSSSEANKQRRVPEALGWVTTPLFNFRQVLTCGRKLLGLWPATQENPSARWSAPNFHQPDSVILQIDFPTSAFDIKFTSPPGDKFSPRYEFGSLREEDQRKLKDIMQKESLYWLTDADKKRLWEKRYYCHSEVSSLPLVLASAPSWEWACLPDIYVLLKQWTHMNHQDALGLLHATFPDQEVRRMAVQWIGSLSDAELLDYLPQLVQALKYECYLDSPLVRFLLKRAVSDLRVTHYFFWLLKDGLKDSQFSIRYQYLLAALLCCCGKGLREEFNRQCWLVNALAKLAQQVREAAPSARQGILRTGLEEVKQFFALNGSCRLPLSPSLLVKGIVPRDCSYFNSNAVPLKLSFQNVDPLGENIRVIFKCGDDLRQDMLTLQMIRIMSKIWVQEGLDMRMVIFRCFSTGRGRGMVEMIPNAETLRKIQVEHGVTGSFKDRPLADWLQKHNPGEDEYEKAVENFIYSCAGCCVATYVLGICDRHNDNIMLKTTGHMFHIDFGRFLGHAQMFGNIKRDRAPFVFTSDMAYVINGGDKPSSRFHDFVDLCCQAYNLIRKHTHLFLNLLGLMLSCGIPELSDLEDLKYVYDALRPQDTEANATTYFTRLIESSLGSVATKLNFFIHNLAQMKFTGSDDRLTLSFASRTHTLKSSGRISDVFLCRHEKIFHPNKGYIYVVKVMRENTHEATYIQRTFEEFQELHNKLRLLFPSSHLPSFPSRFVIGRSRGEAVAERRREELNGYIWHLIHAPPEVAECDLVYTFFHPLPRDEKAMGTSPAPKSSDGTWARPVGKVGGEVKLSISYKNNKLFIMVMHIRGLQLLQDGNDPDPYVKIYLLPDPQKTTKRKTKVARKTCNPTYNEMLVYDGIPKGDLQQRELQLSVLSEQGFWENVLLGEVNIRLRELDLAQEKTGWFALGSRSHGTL
Serine/threonine-protein kinase MARK1 (Homo sapiens), sequence (Q9P0L2 whole entry, looked up): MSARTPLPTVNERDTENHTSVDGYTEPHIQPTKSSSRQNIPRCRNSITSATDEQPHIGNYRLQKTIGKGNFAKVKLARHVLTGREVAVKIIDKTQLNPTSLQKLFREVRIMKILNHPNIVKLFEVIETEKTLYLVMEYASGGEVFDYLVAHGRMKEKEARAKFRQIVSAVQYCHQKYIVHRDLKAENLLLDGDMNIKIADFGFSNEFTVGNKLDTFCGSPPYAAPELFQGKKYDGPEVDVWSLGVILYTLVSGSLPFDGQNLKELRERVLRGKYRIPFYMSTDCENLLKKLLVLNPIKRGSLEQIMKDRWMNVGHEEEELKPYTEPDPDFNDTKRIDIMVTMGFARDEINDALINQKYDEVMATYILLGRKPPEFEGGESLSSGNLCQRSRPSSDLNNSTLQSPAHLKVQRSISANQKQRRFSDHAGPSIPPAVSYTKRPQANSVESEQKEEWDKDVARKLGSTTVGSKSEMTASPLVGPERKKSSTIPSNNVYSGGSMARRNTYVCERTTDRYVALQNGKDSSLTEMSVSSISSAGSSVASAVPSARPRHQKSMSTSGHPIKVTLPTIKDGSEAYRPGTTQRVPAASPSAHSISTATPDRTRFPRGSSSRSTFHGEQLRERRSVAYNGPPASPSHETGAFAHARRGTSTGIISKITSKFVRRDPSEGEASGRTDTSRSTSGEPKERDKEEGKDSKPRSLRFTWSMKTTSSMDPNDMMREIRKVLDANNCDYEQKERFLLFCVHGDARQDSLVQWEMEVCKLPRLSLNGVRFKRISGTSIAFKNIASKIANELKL
Myosin light chain kinase (Homo sapiens), sequence (Q32MK0 whole entry): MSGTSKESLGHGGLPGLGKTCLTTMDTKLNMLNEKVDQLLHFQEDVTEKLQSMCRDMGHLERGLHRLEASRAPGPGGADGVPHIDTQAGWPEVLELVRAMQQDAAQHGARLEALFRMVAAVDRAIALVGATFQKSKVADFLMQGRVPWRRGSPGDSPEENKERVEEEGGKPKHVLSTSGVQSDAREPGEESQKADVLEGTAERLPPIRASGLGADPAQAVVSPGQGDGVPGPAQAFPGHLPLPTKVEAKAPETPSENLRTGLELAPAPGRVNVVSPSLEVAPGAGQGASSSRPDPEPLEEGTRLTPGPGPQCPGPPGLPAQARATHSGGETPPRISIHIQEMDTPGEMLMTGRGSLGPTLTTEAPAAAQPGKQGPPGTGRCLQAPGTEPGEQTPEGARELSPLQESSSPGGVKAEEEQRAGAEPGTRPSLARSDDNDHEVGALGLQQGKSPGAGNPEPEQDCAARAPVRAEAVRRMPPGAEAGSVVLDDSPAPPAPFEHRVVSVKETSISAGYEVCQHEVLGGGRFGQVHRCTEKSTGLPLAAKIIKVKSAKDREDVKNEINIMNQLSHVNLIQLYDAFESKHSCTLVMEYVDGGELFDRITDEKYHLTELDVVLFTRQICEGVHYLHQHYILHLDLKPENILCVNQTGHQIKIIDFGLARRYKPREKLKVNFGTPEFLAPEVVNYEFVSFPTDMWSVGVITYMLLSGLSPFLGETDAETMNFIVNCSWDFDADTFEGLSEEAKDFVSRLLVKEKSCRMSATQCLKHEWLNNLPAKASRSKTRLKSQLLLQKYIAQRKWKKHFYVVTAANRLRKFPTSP
Receptor-interacting serine/threonine-protein kinase 2 (Homo sapiens), sequence (O43353 whole entry): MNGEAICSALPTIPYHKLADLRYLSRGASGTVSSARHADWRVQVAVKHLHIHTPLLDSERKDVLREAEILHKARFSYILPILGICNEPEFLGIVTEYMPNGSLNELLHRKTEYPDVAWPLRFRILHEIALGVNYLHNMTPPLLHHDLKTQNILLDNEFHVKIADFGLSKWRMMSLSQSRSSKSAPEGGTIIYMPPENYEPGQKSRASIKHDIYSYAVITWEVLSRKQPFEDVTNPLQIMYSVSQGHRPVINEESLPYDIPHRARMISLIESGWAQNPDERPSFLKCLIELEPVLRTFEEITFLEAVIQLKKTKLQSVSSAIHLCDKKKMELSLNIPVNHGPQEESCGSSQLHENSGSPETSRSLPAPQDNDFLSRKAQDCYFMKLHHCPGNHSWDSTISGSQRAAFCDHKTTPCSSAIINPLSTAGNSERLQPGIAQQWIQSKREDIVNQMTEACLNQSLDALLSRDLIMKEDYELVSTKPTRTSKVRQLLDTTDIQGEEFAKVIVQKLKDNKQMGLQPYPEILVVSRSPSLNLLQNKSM
Serine/threonine-protein kinase 16 (Homo sapiens), sequence (O75716 whole entry): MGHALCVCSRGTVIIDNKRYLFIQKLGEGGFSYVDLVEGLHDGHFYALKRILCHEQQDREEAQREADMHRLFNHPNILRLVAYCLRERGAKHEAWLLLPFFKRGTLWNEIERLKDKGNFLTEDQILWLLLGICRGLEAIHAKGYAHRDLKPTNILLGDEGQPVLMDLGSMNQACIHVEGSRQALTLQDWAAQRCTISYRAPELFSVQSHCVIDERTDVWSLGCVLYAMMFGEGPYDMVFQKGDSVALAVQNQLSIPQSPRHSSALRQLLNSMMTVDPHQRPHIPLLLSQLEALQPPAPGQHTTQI

CCCCN(CCCC)C(=O)CN1C[C@H](c2cc(OC)c3c(c2)OCO3)[C@@H](C(=O)O)[C@@H]1CC(C)(C)CCC [ABT-546]
inactive: [1] 100% | [2] 100% | [3] 95.6% | [4] 75.4% | [5] 100% | [6] 100% | [7] 98.1% | [8] 100% | [9] 94.3% | [10] 100% | [11] 100% | [12] 100% | [13] 98% | [14] 100% | [15] 80.9% | [16] 96.1% | [17] 100% | [18] 54.4% | [19] 100% | [20] 96.5% | [21] 57.5% | [22] 74.4% | [23] 100% | [24] 88.4% | [25] 100% | [26] 100% | [27] 100% | [28] 99.1% | [29] 85% | [30] 100% | [31] 94.2% | [32] 100% | [33] 65.9% | [34] 100% | [35] 100% | [36] 100% | [37] 100% | [38] 100% | [39] 69.2% | [40] 69.6% | [41] 100% | [42] 85.5% | [43] 100% | [44] 86.7% | [45] 72.9%

CCCCN(CCCC)C(=O)CN1C[C@@H](c2cc(OC)c3c(c2)OCO3)[C@H](C(=O)O)[C@H]1CC(C)(C)CCC [A-545]
inactive: [1] 85.7% | [2] 95.4% | [3] 98.3% | [4] 94.9% | [5] 100% | [6] 86.7% | [7] 99.1% | [8] 82.8% | [9] 88.4% | [10] 100% | [11] 95% | [12] 100% | [13] 79% | [14] 92.1% | [15] 76.5% | [16] 100% | [17] 99% | [18] 100% | [19] 88.9% | [20] 88.7% | [21] 89.5% | [22] 93.3% | [23] 100% | [24] 100% | [25] 100% | [26] 78.7% | [27] 100% | [28] 72.9% | [29] 93.9% | [30] 100% | [31] 99.2% | [32] 92.4% | [33] 73.6% | [34] 100% | [35] 81.9% | [36] 100% | [37] 100% | [38] 100% | [39] 77.6% | [40] 90.6% | [41] 100% | [42] 84.7% | [43] 100% | [44] 90.7% | [45] 96.8%
